Reference: patent US20180249707A1, “METHOD OF CONTROLLING ALGAE IN A BODY OF WATER” (priority 2013, published 2018)

Assays:
Microcystis aeruginosa = experiment: 14-day flask exposure of Microcystis aeruginosa to BADA; type: cell-based
Method: (§1) The experiment was conducted for 14 days and was initiated using 100 mL BG-11 medium contained in 200 mL flasks. […] The experiment was initiated by exposing the algae to 0.2, 0.4, 0.8, 1.0, 1.2, 1.4, 1.8, and 2.0 ppm (mg/L) as BADA, 0.5 Cu/L Cutrine®-Plus. The solution was heated in a water bath and diluted to 70 mg/L using warmed deionized water. Cutrine®-Plus stock solution was made at 50 mg/L using deionized water. Three replicates of each exposure concentration, along with three replicates of an untreated reference were tested. Each sample was maintained at room temperature with 12-hours of light and 12-h dark photoperiod. The chlorophyll a concentrations of Microcystis aeruginosa through the 14 day exposure after exposure to concentrations of BADA and Cutrine®-Plus. The results are shown in TABLES 5, and 6, which show the chlorophyll a concentration and the cell density, respectively.

Cladophora sp. = experiment: 14-day flask exposure of Cladophora sp. to BADA; type: cell-based, C. kosterae
Method: The experiment was conducted for 14 days and was initiated using 100 mL BG-11 medium contained in 200 mL flasks. […] The solution was heated in a water bath and diluted to 70 mg/L using warmed deionized water. The concentration of DMSO was approximately 350 mg/L in the test beakers. Cutrine®-Plus stock solution was made at 50 mg/L using deionized water. Three replicates of each exposure concentration, along with three replicates of an untreated reference were tested. Each sample was maintained at room temperature with 12-hours of light and 12-h dark photoperiod. […]

M. aeruginosa = experiment: Repeat exposure of M. aeruginosa to BADA at 25-200 ppb; type: cell-based
Method: as §1
Example 5 was repeated but using the N,N-bis-(3-aminopropyl) dodecylamine in the amounts of 200 parts per billion ((ppb) 0.2 ppm), 100 parts per billion ((ppb) 0.1 ppm), 75 parts per billion ((ppb) 0.075 ppm), 50 parts per billion ((ppb) 0.05 ppm), and 25 parts per billion ((ppb) 0.025 ppm). A control example was also repeated since the M. aeruginosa was from a different culture and the test were conducted at different times. The results are shown in TABLES 8, and 9, which show the chlorophyll a concentration and the cell density, respectively.

[1] = at concentrations comparable to Cutrine-Plus

## CCCCCCCCCCCCN(CCCN)CCCN [BADA, N,N-bis-(3-aminopropyl) dodecylamine]
Microcystis aeruginosa; 0.2 to 2.0 ppm (mg/L), by 15 days after start, p<0.01
  Chlorophyll a content of M. aeruginosa compared to untreated control algae: reduced
Microcystis aeruginosa; BADA 0.2 ppm, day 0 (initial)
  Cell density of M. aeruginosa cultures: 5.7E+05 cells/mL
  In vivo chlorophyll a concentrations of M. aeruginosa cultures: 0.90 µg/L
Microcystis aeruginosa; BADA 0.2 ppm, day 3
  In vivo chlorophyll a concentrations of M. aeruginosa cultures: 0.28 µg/L
Microcystis aeruginosa; BADA 0.2 ppm, day 7
  Cell density of M. aeruginosa cultures: <1E+04 cells/mL
  In vivo chlorophyll a concentrations of M. aeruginosa cultures: 0.06 µg/L
Microcystis aeruginosa; BADA 0.2 ppm, day 14
  Cell density of M. aeruginosa cultures: <1E+04 cells/mL
  In vivo chlorophyll a concentrations of M. aeruginosa cultures: 0.02 µg/L
Microcystis aeruginosa; BADA 0.4 ppm, day 0 (initial)
  Cell density of M. aeruginosa cultures: 5.7E+05 cells/mL
  In vivo chlorophyll a concentrations of M. aeruginosa cultures: 0.90 µg/L
Microcystis aeruginosa; BADA 0.4 ppm, day 3
  In vivo chlorophyll a concentrations of M. aeruginosa cultures: 0.23 µg/L
Microcystis aeruginosa; BADA 0.4 ppm, day 7
  Cell density of M. aeruginosa cultures: <1E+04 cells/mL
  In vivo chlorophyll a concentrations of M. aeruginosa cultures: 0.03 µg/L
Microcystis aeruginosa; BADA 0.4 ppm, day 14
  Cell density of M. aeruginosa cultures: <1E+04 cells/mL
  In vivo chlorophyll a concentrations of M. aeruginosa cultures: 0.02 µg/L
Microcystis aeruginosa; BADA 0.8 ppm, day 0 (initial)
  Cell density of M. aeruginosa cultures: 5.7E+05 cells/mL
  In vivo chlorophyll a concentrations of M. aeruginosa cultures: 0.90 µg/L
Microcystis aeruginosa; BADA 0.8 ppm, day 3
  In vivo chlorophyll a concentrations of M. aeruginosa cultures: 0.26 µg/L
Microcystis aeruginosa; BADA 0.8 ppm, day 7
  Cell density of M. aeruginosa cultures: <1E+04 cells/mL
  In vivo chlorophyll a concentrations of M. aeruginosa cultures: 0.03 µg/L
Microcystis aeruginosa; BADA 0.8 ppm, day 14
  Cell density of M. aeruginosa cultures: <1E+04 cells/mL
  In vivo chlorophyll a concentrations of M. aeruginosa cultures: 0.02 µg/L
Microcystis aeruginosa; BADA 1.0 ppm, day 0 (initial)
  Cell density of M. aeruginosa cultures: 5.7E+05 cells/mL
  In vivo chlorophyll a concentrations of M. aeruginosa cultures: 0.90 µg/L
Microcystis aeruginosa; BADA 1.0 ppm, day 3
  In vivo chlorophyll a concentrations of M. aeruginosa cultures: 0.31 µg/L
Microcystis aeruginosa; BADA 1.0 ppm, day 7
  Cell density of M. aeruginosa cultures: <1E+04 cells/mL
  In vivo chlorophyll a concentrations of M. aeruginosa cultures: 0.05 µg/L
Microcystis aeruginosa; BADA 1.0 ppm, day 14
  Cell density of M. aeruginosa cultures: <1E+04 cells/mL
  In vivo chlorophyll a concentrations of M. aeruginosa cultures: 0.02 µg/L
Microcystis aeruginosa; BADA 1.2 ppm, day 0 (initial)
  Cell density of M. aeruginosa cultures: 5.7E+05 cells/mL
  In vivo chlorophyll a concentrations of M. aeruginosa cultures: 0.90 µg/L
Microcystis aeruginosa; BADA 1.2 ppm, day 3
  In vivo chlorophyll a concentrations of M. aeruginosa cultures: 0.29 µg/L
Microcystis aeruginosa; BADA 1.2 ppm, day 7
  Cell density of M. aeruginosa cultures: <1E+04 cells/mL
  In vivo chlorophyll a concentrations of M. aeruginosa cultures: 0.04 µg/L
Microcystis aeruginosa; BADA 1.2 ppm, day 14
  Cell density of M. aeruginosa cultures: <1E+04 cells/mL
  In vivo chlorophyll a concentrations of M. aeruginosa cultures: 0.02 µg/L
Microcystis aeruginosa; BADA 1.4 ppm, day 0 (initial)
  Cell density of M. aeruginosa cultures: 5.7E+05 cells/mL
  In vivo chlorophyll a concentrations of M. aeruginosa cultures: 0.90 µg/L
Microcystis aeruginosa; BADA 1.4 ppm, day 3
  In vivo chlorophyll a concentrations of M. aeruginosa cultures: 0.29 µg/L
Microcystis aeruginosa; BADA 1.4 ppm, day 7
  Cell density of M. aeruginosa cultures: <1E+04 cells/mL
  In vivo chlorophyll a concentrations of M. aeruginosa cultures: 0.04 µg/L
Microcystis aeruginosa; BADA 1.4 ppm, day 14
  Cell density of M. aeruginosa cultures: <1E+04 cells/mL
  In vivo chlorophyll a concentrations of M. aeruginosa cultures: 0.01 µg/L
Microcystis aeruginosa; BADA 1.8 ppm, day 0 (initial)
  Cell density of M. aeruginosa cultures: 5.7E+05 cells/mL
  In vivo chlorophyll a concentrations of M. aeruginosa cultures: 0.90 µg/L
Microcystis aeruginosa; BADA 1.8 ppm, day 3
  In vivo chlorophyll a concentrations of M. aeruginosa cultures: 0.32 µg/L
Microcystis aeruginosa; BADA 1.8 ppm, day 7
  Cell density of M. aeruginosa cultures: <1E+04 cells/mL
  In vivo chlorophyll a concentrations of M. aeruginosa cultures: 0.03 µg/L
Microcystis aeruginosa; BADA 1.8 ppm, day 14
  Cell density of M. aeruginosa cultures: <1E+04 cells/mL
  In vivo chlorophyll a concentrations of M. aeruginosa cultures: 0.02 µg/L
Microcystis aeruginosa; BADA 2.0 ppm, day 0 (initial)
  Cell density of M. aeruginosa cultures: 5.7E+05 cells/mL
  In vivo chlorophyll a concentrations of M. aeruginosa cultures: 0.90 µg/L
Microcystis aeruginosa; BADA 2.0 ppm, day 3
  In vivo chlorophyll a concentrations of M. aeruginosa cultures: 0.40 µg/L
Microcystis aeruginosa; BADA 2.0 ppm, day 7
  Cell density of M. aeruginosa cultures: <1E+04 cells/mL
  In vivo chlorophyll a concentrations of M. aeruginosa cultures: 0.03 µg/L
Microcystis aeruginosa; BADA 2.0 ppm, day 14
  Cell density of M. aeruginosa cultures: <1E+04 cells/mL
  In vivo chlorophyll a concentrations of M. aeruginosa cultures: 0.01 µg/L
Microcystis aeruginosa; [1]
  effectiveness as an algaecide on Microcystis aeruginosa: effective
Cladophora sp.; BADA 0.2 ppm, day 0 (initial)
  Extracted chlorphylll a concentrations of C. kosterae cultures: 14.21 μg/sample
Cladophora sp.; BADA 0.2 ppm, day 14
  Extracted chlorphylll a concentrations of C. kosterae cultures: 11.01 μg/sample
Cladophora sp.; BADA 0.4 ppm, day 0 (initial)
  Extracted chlorphylll a concentrations of C. kosterae cultures: 14.21 μg/sample
Cladophora sp.; BADA 0.4 ppm, day 14
  Extracted chlorphylll a concentrations of C. kosterae cultures: 13.15 μg/sample
Cladophora sp.; BADA 0.8 ppm, day 0 (initial)
  Extracted chlorphylll a concentrations of C. kosterae cultures: 14.21 μg/sample
Cladophora sp.; BADA 0.8 ppm, day 14
  Extracted chlorphylll a concentrations of C. kosterae cultures: 12.54 μg/sample
Cladophora sp.; BADA 1.0 ppm, day 0 (initial)
  Extracted chlorphylll a concentrations of C. kosterae cultures: 14.21 μg/sample
Cladophora sp.; BADA 1.0 ppm, day 14
  Extracted chlorphylll a concentrations of C. kosterae cultures: 13.26 μg/sample
Cladophora sp.; BADA 1.2 ppm, day 0 (initial)
  Extracted chlorphylll a concentrations of C. kosterae cultures: 14.21 μg/sample
Cladophora sp.; BADA 1.2 ppm, day 14
  Extracted chlorphylll a concentrations of C. kosterae cultures: 11.15 μg/sample
Cladophora sp.; BADA 1.4 ppm, day 0 (initial)
  Extracted chlorphylll a concentrations of C. kosterae cultures: 14.21 μg/sample
Cladophora sp.; BADA 1.4 ppm, day 14
  Extracted chlorphylll a concentrations of C. kosterae cultures: 8.63 μg/sample
Cladophora sp.; BADA 1.8 ppm, day 0 (initial)
  Extracted chlorphylll a concentrations of C. kosterae cultures: 14.21 μg/sample
Cladophora sp.; BADA 1.8 ppm, day 14
  Extracted chlorphylll a concentrations of C. kosterae cultures: 8.70 μg/sample
Cladophora sp.; BADA 2.0 ppm, day 0 (initial)
  Extracted chlorphylll a concentrations of C. kosterae cultures: 14.21 μg/sample
Cladophora sp.; BADA 2.0 ppm, day 14
  Extracted chlorphylll a concentrations of C. kosterae cultures: 8.32 μg/sample
Cladophora sp.; [1]
  effectiveness as an algaecide on Cladophora sp.: effective
M. aeruginosa; BADA 25 ppb, day 0 (initial)
  Cell density of M. aeruginosa cultures: 3.8E+05 cells/mL
  In vivo chlorophyll a concentrations of M. aeruginosa cultures: 1.20 µg/L
M. aeruginosa; BADA 25 ppb, day 1
  In vivo chlorophyll a concentrations of M. aeruginosa cultures: 0.67 µg/L
M. aeruginosa; BADA 25 ppb, day 5
  In vivo chlorophyll a concentrations of M. aeruginosa cultures: 0.64 µg/L
M. aeruginosa; BADA 25 ppb, day 7
  In vivo chlorophyll a concentrations of M. aeruginosa cultures: 1.58 µg/L
M. aeruginosa; BADA 25 ppb, day 12
  In vivo chlorophyll a concentrations of M. aeruginosa cultures: 7.91 µg/L
M. aeruginosa; BADA 25 ppb, day 14
  Cell density of M. aeruginosa cultures: 7.3E+06 cells/mL
  In vivo chlorophyll a concentrations of M. aeruginosa cultures: 10.06 µg/L
M. aeruginosa; BADA 50 ppb, day 0 (initial)
  Cell density of M. aeruginosa cultures: 3.8E+05 cells/mL
  In vivo chlorophyll a concentrations of M. aeruginosa cultures: 1.20 µg/L
M. aeruginosa; BADA 50 ppb, day 1
  In vivo chlorophyll a concentrations of M. aeruginosa cultures: 0.48 µg/L
M. aeruginosa; BADA 50 ppb, day 5
  In vivo chlorophyll a concentrations of M. aeruginosa cultures: 0.04 µg/L
M. aeruginosa; BADA 50 ppb, day 7
  In vivo chlorophyll a concentrations of M. aeruginosa cultures: 0.06 µg/L
M. aeruginosa; BADA 50 ppb, day 12
  In vivo chlorophyll a concentrations of M. aeruginosa cultures: 0.71 µg/L
M. aeruginosa; BADA 50 ppb, day 14
  Cell density of M. aeruginosa cultures: 1.5E+06 cells/mL
  In vivo chlorophyll a concentrations of M. aeruginosa cultures: 1.93 µg/L
M. aeruginosa; BADA 75 ppb, day 0 (initial)
  Cell density of M. aeruginosa cultures: 3.8E+05 cells/mL
  In vivo chlorophyll a concentrations of M. aeruginosa cultures: 1.20 µg/L
M. aeruginosa; BADA 75 ppb, day 1
  In vivo chlorophyll a concentrations of M. aeruginosa cultures: 0.50 µg/L
M. aeruginosa; BADA 75 ppb, day 5
  In vivo chlorophyll a concentrations of M. aeruginosa cultures: 0.05 µg/L
M. aeruginosa; BADA 75 ppb, day 7
  In vivo chlorophyll a concentrations of M. aeruginosa cultures: 0.05 µg/L
M. aeruginosa; BADA 75 ppb, day 12
  In vivo chlorophyll a concentrations of M. aeruginosa cultures: 0.60 µg/L
M. aeruginosa; BADA 75 ppb, day 14
  Cell density of M. aeruginosa cultures: 1.4E+06 cells/mL
  In vivo chlorophyll a concentrations of M. aeruginosa cultures: 1.77 µg/L
M. aeruginosa; BADA 100 ppb, day 0 (initial)
  Cell density of M. aeruginosa cultures: 3.8E+05 cells/mL
  In vivo chlorophyll a concentrations of M. aeruginosa cultures: 1.20 µg/L
M. aeruginosa; BADA 100 ppb, day 1
  In vivo chlorophyll a concentrations of M. aeruginosa cultures: 0.55 µg/L
M. aeruginosa; BADA 100 ppb, day 5
  In vivo chlorophyll a concentrations of M. aeruginosa cultures: 0.03 µg/L
M. aeruginosa; BADA 100 ppb, day 7
  In vivo chlorophyll a concentrations of M. aeruginosa cultures: 0.03 µg/L
M. aeruginosa; BADA 100 ppb, day 12
  In vivo chlorophyll a concentrations of M. aeruginosa cultures: 0.31 µg/L
M. aeruginosa; BADA 100 ppb, day 14
  Cell density of M. aeruginosa cultures: 8.7E+05 cells/mL
  In vivo chlorophyll a concentrations of M. aeruginosa cultures: 0.98 µg/L
M. aeruginosa; BADA 200 ppb, day 0 (initial)
  Cell density of M. aeruginosa cultures: 3.8E+05 cells/mL
  In vivo chlorophyll a concentrations of M. aeruginosa cultures: 1.20 µg/L
M. aeruginosa; BADA 200 ppb, day 1
  In vivo chlorophyll a concentrations of M. aeruginosa cultures: 0.50 µg/L
M. aeruginosa; BADA 200 ppb, day 5
  In vivo chlorophyll a concentrations of M. aeruginosa cultures: 0.03 µg/L
M. aeruginosa; BADA 200 ppb, day 7
  In vivo chlorophyll a concentrations of M. aeruginosa cultures: 0.02 µg/L
M. aeruginosa; BADA 200 ppb, day 12
  In vivo chlorophyll a concentrations of M. aeruginosa cultures: 0.05 µg/L
M. aeruginosa; BADA 200 ppb, day 14
  Cell density of M. aeruginosa cultures: 1.4E+05 cells/mL
  In vivo chlorophyll a concentrations of M. aeruginosa cultures: 0.16 µg/L
